In general, melting point refers to the temperature, or range, at which the solid turns liquid.

Converted amounts (≈) assume the structure as drawn.

These results are taken from US8716292B2, “Riminophenazines with 2-(heteroaryl)amino substituents and their anti-microbial activity” (priority 2010, dated 2014).

The subject of data set [1] is Mycobacterium tuberculosis H37Rv strains. Nature of the data set: In vitro assay for antimicrobial susceptibility (microplate Alamar blue MIC). It counts as cell-based. Particulars: Mycobacterium tuberculosis, H37RV, in vitro, Mycobacterium tuberculosis H37Rv strains; read-out: MIC (μg/mL) against H37Rv. (Resazurin is reduced to fluorescent resorufin, in cell work by metabolically active cells.)

For a further data set, the system named is H37Rv. Nature of the data set: In vivo testing: mice infected intravenously with H37Rv, lung tissue CFU counts. Particulars: thirty days postinfection; for Log CFU (TBI treated): 20 mg/kg, gavage 5 times weekly, lung tissue CFU; for log reduction at 20 mg/kg: Mycobacterium tuberculosis, H37RV, iv, 720 h, versus untreated control, lung tissue, read-out: Log CFU Reduction (TBI treated). More on the design: species or system Male BALB/c mice. Here is the method: Male BALB/c mice (18˜20 g) were infected intravenously with 0.2 ml portions containing 1×10^5 CFU of H37Rv. One day after the infection, four mice were sacrificed and the numbers of CFU in the spleens and lungs were determined. Organs were removed and homogenized in Middlebrook 7H9 broth. To enumerate CFU, appropriate dilutions of the homogenates were plated onto Middlebrook 7H10 agar and colonies were counted after 3 to 4 weeks of incubation at 37° C. The remaining mice were allocated either to untreated groups or to various drug treated groups (six mice per group). The dose of every test compound was 20 mg/kg. The positive control groups were treated by isoniazid and clofazimine. The test compounds and clofazimine were administered by gavage 5 times weekly. Untreated mice were administered by gavage with CMC. Thirty days postinfection, both untreated and treated mice were sacrificed and lung tissue CFU counts were determined. The significance of the CFU count and organ weight difference was assessed by a two-tailed Student t test. P≦0.01 was considered significant.

The molecule `Clc1ccc(-n2c3c/c(=N\C4CCN(C5CCCC5)CC4)c(Nc4cccnc4)cc-3nc3ccccc32)cc1` [TBI-437, 5-(4-Chlorophenyl)-3-(N-cyclopentyl-4-piperidyl)imino-2-(3-pyridyl)amino-3,5-dihydrophenazine] gave a melting point of 170 to 172 °C. Also, the MIC in data set [1] stood at 0.125 µg/mL (≈ 0.228 µM).
Consider `Cc1ccc(Nc2cc3nc4ccccc4n(-c4ccc(Cl)cc4)c-3c/c2=N\C2CCOCC2)cn1` [TBI-449, 5-(4-Chlorophenyl)-3-(4-tetrahydropyranyl)imino-2-(6-methyl-3-pyridyl)amino-3,5-dihydrophenazine], for which, in data set [1], the MIC was determined as 0.03 µg/mL (≈ 0.0605 µM). For the same molecule, in the data set with H37Rv, the “Log CFU (TBI treated)” value stood at 3.87 and the log reduction at 20 mg/kg came out at 4.66.
In the case of `COc1ncccc1Nc1cc2nc3ccccc3n(-c3ccc(Cl)cc3)c-2c/c1=N\C1CCOCC1` [TBI-443, 5-(4-chlorophenyl)-3-(4-tetrahydropyranyl)imino-2-(2-methoxy-3-pyridyl)amino-3,5-dihydrophenazine], the MIC in data set [1] came to 0.016 µg/mL (≈ 0.0312 µM). Further, in the data set on H37Rv, the “Log CFU (TBI treated)” value is recorded as 5.13 and the log reduction at 20 mg/kg stood at 3.4.
`CN1CCC(C/N=c2\cc3n(-c4ccc(Cl)cc4)c4ccccc4nc-3cc2Nc2cccnc2)CC1` [TBI-428, 5-(4-Chlorophenyl)-3-(N-methyl-4-piperidylmethyl)imino-2-(3-pyridyl)amino-3,5-dihydrophenazine] returned a melting point of 188 to 190 °C. The MIC in data set [1] was found to be 0.25 µg/mL (≈ 0.491 µM).
For `COc1ncccc1Nc1cc2nc3ccccc3n(-c3ccc(F)cc3)c-2c/c1=N\C1CCC(OC)CC1` (centres unmarked) [TBI-1002, 5-(4-Fluorophenyl)-3-(4-methoxycyclohexyl)imino-2-(2-methoxy-3-pyridyl)amino-3,5-dihydrophenazine], the MIC in data set [1] stood at 0.016 µg/mL (≈ 0.0306 µM). For the same molecule, in the data set on H37Rv, the “Log CFU (TBI treated)” value was 4.85 and the log reduction at 20 mg/kg was 3.68.
Turning to `CC(C)CN1CCC(/N=c2\cc3n(-c4ccc(Cl)cc4)c4ccccc4nc-3cc2Nc2cccnc2)CC1` [TBI-435, 5-(4-Chlorophenyl)-3-(N-isobutyl-4-piperidyl)imino-2-(3-pyridyl)amino-3,5-dihydrophenazine], the melting point fell in the range of 209 to 210 °C. The MIC in data set [1] turned out to be 0.25 µg/mL (≈ 0.465 µM).
Consider `COC1CCC(/N=c2\cc3n(-c4ccc(C(F)(F)F)cc4)c4ccccc4nc-3cc2Nc2cccnc2)CC1` (centres unmarked) [TBI-688, 5-(4-Trifluoromethylphenyl)-3-(4-methoxycyclohexyl)imino-2-(3-pyridyl)amino-3,5-dihydrophenazine], for which, in data set [1], the MIC came to 0.03 µg/mL (≈ 0.0552 µM). For the same molecule, in the data set with H37Rv, the “Log CFU (TBI treated)” value was 5.99 and the log reduction at 20 mg/kg came to 2.83.
Consider `CN1CCC(/N=c2\cc3n(-c4ccc(Cl)cc4)c4ccccc4nc-3cc2Nc2cccnc2)CC1` [TBI-427, 5-(4-Chlorophenyl)-3-(N-methyl-4-piperidyl)imino-2-(3-pyridyl)amino-3,5-dihydrophenazine], for which the melting point was 198 to 200 °C. The MIC in data set [1] turned out to be 0.125 µg/mL (≈ 0.253 µM).
On to `COc1ncccc1Nc1cc2nc3ccccc3n(-c3ccc(Cl)cc3)c-2c/c1=N\C1CCC(OC)CC1` (centres unmarked) [TBI-444, 5-(4-Chlorophenyl)-3-(4-methoxycyclohexyl)imino-2-(2-methoxy-3-pyridyl)amino-3,5-dihydrophenazine], for which the MIC in data set [1] is 0.016 µg/mL (≈ 0.0296 µM). Also, in the data set on H37Rv, the “Log CFU (TBI treated)” value is reported as 4.71 and the log reduction at 20 mg/kg was 3.82.
The like results for `COc1ncccc1Nc1cc2nc3ccccc3n(-c3ccc(OC(F)(F)F)cc3)c-2c/c1=N\C1CCC(OC)CC1` (centres unmarked) [TBI-166, 5-(4-Trifluoromethoxyphenyl)-(4-methoxycyclohexyl)imino-2-(2-methoxy-3-pyridyl)amino-3,5-dihydrophenazine] were, in that order, 0.016 µg/mL (≈ 0.0271 µM), 4.66 and 3.87.
Consider `COC1CCC(/N=c2\cc3n(-c4ccc(Cl)cc4)c4ccccc4nc-3cc2Nc2cccnc2)CC1` (centres unmarked) [TBI-436, 5-(4-Chlorophenyl)-3-(4-methoxycyclohexyl)imino-2-(3-pyridyl)amino-3,5-dihydrophenazine], for which the melting point lay in the range of 228 to 230 °C. For the same molecule, in data set [1], the MIC worked out at 0.03 µg/mL (≈ 0.0588 µM).
For `COc1ncccc1Nc1cc2nc3ccccc3n(-c3ccc(F)cc3)c-2c/c1=N\C1CC1` [TBI-1010, 5-(4-Fluorophenyl)-3-cyclopropylimino-2-(2-methoxy-3-pyridyl)amino-3,5-dihydrophenazine], the MIC in data set [1] is 0.011 µg/mL (≈ 0.0244 µM). Further, in the data set with H37Rv, the “Log CFU (TBI treated)” value is 4.86 and the log reduction at 20 mg/kg came to 3.67.
For `COc1ncccc1Nc1cc2nc3ccccc3n(-c3ccc(F)cc3)c-2c/c1=N\C(C)C` [TBI-1004, 5-(4-Fluorophenyl)-3-(1-methylethyl)imino-2-(2-methoxy-3-pyridyl)amino-3,5-dihydrophenazine], in the data set with H37Rv, the “Log CFU (TBI treated)” value stood at 4.28 and the log reduction at 20 mg/kg stood at 4.25.
Consider `COC1CCC(/N=c2\cc3n(-c4ccc(Cl)cc4)c4ccccc4nc-3cc2Nc2ccc(C)nc2)CC1` (centres unmarked) [TBI-450, 5-(4-Chlorophenyl)-3-(4-methoxycyclohexyl)imino-2-(6-methyl-3-pyridyl)amino-3,5-dihydrophenazine], for which the MIC in data set [1] turned out to be 0.016 µg/mL (≈ 0.0305 µM). For the same molecule, in the data set with H37Rv, the “Log CFU (TBI treated)” value is recorded as 3.64 and the log reduction at 20 mg/kg worked out at 4.89.
The like results for `FC(F)(F)Oc1ccc(-n2c3c/c(=N\C4CCOCC4)c(Nc4cccnc4)cc-3nc3ccccc32)cc1` [TBI-161, 5-(4-Trifluoromethoxyphenyl)-3-(4-tetrahydropyranyl)imino-2-(3-pyridyl)amino-3,5-dihydrophenazine] were, in that order, 0.03 µg/mL (≈ 0.0564 µM), 6.05 and 2.77.
As for `CC(C)/N=c1\cc2n(-c3ccc(Cl)cc3)c3ccccc3nc-2cc1Nc1cccnc1` [TBI-416, 5-(4-chlorophenyl)-3-(1-methylethyl)imino-2-(3-pyridyl)amino-3,5-dihydrophenazine], the MIC in data set [1] is 0.03 µg/mL (≈ 0.0682 µM). Moreover, in the data set on H37Rv, the “Log CFU (TBI treated)” value came to 3.83 and the log reduction at 20 mg/kg is 4.7.
Take `CC(C)/N=c1\cc2n(-c3ccc(C(F)(F)F)cc3)c3ccccc3nc-2cc1Nc1cccnc1` [TBI-678, 5-(4-Trifluoromethylphenyl)-3-(1-methylethyl)imino-2-(3-pyridyl)amino-3,5-dihydrophenazine]: in data set [1], the MIC is 0.03 µg/mL (≈ 0.0634 µM). In the data set with H37Rv, the “Log CFU (TBI treated)” value turned out to be 5.82 and the log reduction at 20 mg/kg came out at 3.
As to `Cc1ccc(-n2c3c/c(=N\C4CCC(O)CC4)c(Nc4cncc(C)c4)cc-3nc3ccccc32)cc1` (centres unmarked) [TBI-337, 5-(4-Methylphenyl)-3-(4-hydroxycyclohexyl)imino-2-(5-methyl-3-pyridyl)amino-3,5-dihydrophenazine], in data set [1], the MIC was determined as 0.452 µg/mL (≈ 0.923 µM).
Regarding `CO[C@H]1CC[C@H](/N=c2\cc3n(-c4ccc(Cl)cc4)c4ccccc4nc-3cc2Nc2cncc(Br)c2)CC1` [TBI-881, 5-(4-Chlorophenyl)-3-(1′,4′-trans-4-methoxycyclohexyl)imino-2-(5-bromo-3-pyridyl)amino-3,5-dihydrophenazine], the MIC in data set [1] turned out to be 0.052 µg/mL (≈ 0.0883 µM).
Same read-out and setting: the figure for `Cc1ncccc1Nc1cc2nc3ccccc3n(-c3ccccc3)c-2c/c1=N\C(C)C` [TBI-073, 5-Phenyl-3-(1-methylethyl)imino-2-(2-methyl-3-pyridyl)amino-3,5-dihydrophenazine] is 0.058 µg/mL (≈ 0.138 µM).
`CN1CCC(/N=c2\cc3n(-c4ccccc4)c4ccccc4nc-3cc2Nc2cccnc2)CC1` [TBI-055, 5-Phenyl-3-(N-methyl-4-piperidyl)imino-2-(3-pyridyl)amino-3,5-dihydrophenazine]: the MIC in data set [1] was 0.5 µg/mL (≈ 1.09 µM).
Turning to `Cc1ccc(-n2c3c/c(=N\C4CC4)c(Nc4cncc(C)c4)cc-3nc3ccccc32)cc1` [TBI-342, 5-(4-Methylphenyl)-3-cyclopropylimino-2-(5-methyl-3-pyridyl)amino-3,5-dihydrophenazine], the MIC in data set [1] was 0.022 µg/mL (≈ 0.051 µM).
`Cc1ncccc1Nc1cc2nc3ccccc3n(-c3ccc(F)cc3)c-2c/c1=N\C(C)C` [TBI-693, 5-(4-Fluorophenyl)-3-(1-methylethyl)imino-2-(2-methyl-3-pyridyl)amino-3,5-dihydrophenazine]: the MIC in data set [1] was found to be 0.03 µg/mL (≈ 0.0686 µM).
`FC(F)(F)c1ccc(-n2c3c/c(=N\CCN4CCOCC4)c(Nc4cccnc4)cc-3nc3ccccc32)cc1` [TBI-690, 5-(4-Trifluoromethylphenyl)-3-(2-morpholinoethyl)imino-2-(3-pyridyl)amino-3,5-dihydrophenazine]: in data set [1], the MIC was 0.125 µg/mL (≈ 0.23 µM).
As for `COc1ncccc1Nc1cc2nc3ccc(F)cc3n(-c3ccc(Cl)cc3)c-2c/c1=N\C1CCC(OC)CC1` (centres unmarked) [TBI-924], the MIC in data set [1] is 0.06 µg/mL (≈ 0.108 µM).
For the molecule `CN1CCC(/N=c2\cc3n(-c4ccc(F)cc4)c4ccccc4nc-3cc2Nc2cccnc2)CC1` [TBI-682], the MIC in data set [1] was 0.25 µg/mL (≈ 0.522 µM).
Take `Fc1ccc(-n2c3c/c(=N\C4CCOCC4)c(Nc4cccnc4)cc-3nc3ccccc32)cc1F` [TBI-1432, 5-(3,4-Difluorophenyl)-3-(4-tetrahydropyranyl)imino-2-(3-pyridyl)amino-3,5-dihydrophenazine]: the MIC in data set [1] worked out at 0.088 µg/mL (≈ 0.182 µM).
On to `COc1ncccc1Nc1cc2nc3ccccc3n(-c3ccccc3)c-2c/c1=N\C1CCN(CC(C)C)CC1` [TBI-064, 5-Phenyl-3-(N-isobutyl-4-piperidyl)imino-2-(2-methoxy-3-pyridyl)amino-3,5-dihydrophenazine], for which the MIC in data set [1] is 0.057 µg/mL (≈ 0.107 µM).
